This is an account of results in US20240342292A1, “Compounds for the Degradation of EGFR Kinase” (BeiGene Switzerland GmbH, priority 2021, published 2024).

The structures appear in SMILES notation.

One experiment deals with Del19/T790M/C797S EGFR. The experiment is described as follows: EGFR degradation HTRF assay in H1975-clone #28 (DTC) cells. It is filed as cell-based. Conditions: H1975 # 28 DTC (Del19/T790M/C797S), 16h treatment; for DC50: HTRF; for Dmax (%): maximum percentage of degradation. The method in brief:
(§1)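 Cells carrying only lentiviral mutant EGFR, since endogenous alleles were removed by CRISPR, received compounds on day 2 for 16 h. Final concentrations ran from 10 uM down in 5-fold steps over 8 doses. After lysis, EGFR levels were quantified by HTRF and DC50 derived by curve fitting.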

The target of another experiment is T1, L858R/T790M/C797S EGFR (Homo sapiens, UniProt P00533, C797S/L858R/T790M).
T1 construct: expressed in transfected cells; host or cells: H1975 clone #25 (lentiviral over-expression, endogenous EGFR knocked out by sgRNA)
The experiment is described as follows: EGFR degradation HTRF assay in H1975-clone #25 (LTC) cells. It is filed as cell-based. As to conditions: 16h treatment; for DC50: H1975 # 25-LTC (L858R/T790M/C797S), HTRF; for Dmax: NCI-H1975, H1975 # 25-LTC (L858R/T790M/C797S), maximum percentage of degradation. In outline:
as §1
(Time-resolved FRET reads energy transfer from a long-lived donor to a nearby acceptor.)

T1 sequence (P00533 25-1210 T790M/C797S/L858R): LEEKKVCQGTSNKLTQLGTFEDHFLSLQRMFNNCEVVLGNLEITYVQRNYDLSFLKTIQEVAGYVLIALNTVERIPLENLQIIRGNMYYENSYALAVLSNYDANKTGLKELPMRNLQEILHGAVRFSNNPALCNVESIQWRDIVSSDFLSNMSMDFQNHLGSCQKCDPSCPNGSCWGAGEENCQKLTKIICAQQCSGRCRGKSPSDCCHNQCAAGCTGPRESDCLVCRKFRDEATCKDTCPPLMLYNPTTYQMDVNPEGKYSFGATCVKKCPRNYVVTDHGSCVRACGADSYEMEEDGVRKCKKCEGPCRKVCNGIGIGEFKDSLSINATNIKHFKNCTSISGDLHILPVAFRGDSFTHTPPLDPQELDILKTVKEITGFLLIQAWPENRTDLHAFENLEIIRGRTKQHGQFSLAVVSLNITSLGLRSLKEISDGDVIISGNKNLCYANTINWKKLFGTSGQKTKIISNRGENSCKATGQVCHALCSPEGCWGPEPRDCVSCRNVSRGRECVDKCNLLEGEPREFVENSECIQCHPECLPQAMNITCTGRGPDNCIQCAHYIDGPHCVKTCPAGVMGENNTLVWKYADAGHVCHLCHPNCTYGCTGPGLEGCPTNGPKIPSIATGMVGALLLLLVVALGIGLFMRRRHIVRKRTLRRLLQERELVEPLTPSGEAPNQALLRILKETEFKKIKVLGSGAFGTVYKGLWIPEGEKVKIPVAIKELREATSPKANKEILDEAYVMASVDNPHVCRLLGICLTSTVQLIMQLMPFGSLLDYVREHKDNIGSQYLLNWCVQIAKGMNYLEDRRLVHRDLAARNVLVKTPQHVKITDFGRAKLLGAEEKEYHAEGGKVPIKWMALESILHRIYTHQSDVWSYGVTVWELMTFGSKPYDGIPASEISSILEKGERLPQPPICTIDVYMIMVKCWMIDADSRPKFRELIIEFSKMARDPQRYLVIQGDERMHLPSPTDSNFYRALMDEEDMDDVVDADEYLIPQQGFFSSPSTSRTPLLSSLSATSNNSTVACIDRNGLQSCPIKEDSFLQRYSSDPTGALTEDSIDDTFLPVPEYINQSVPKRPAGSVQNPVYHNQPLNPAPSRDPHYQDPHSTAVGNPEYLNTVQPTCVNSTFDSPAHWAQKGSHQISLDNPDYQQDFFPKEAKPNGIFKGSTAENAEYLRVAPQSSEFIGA

Usually DC50 stands for the concentration at which degradation of the target reaches its halfway point. The low end stands for degradation at low concentration, the high end for degradation only at high concentration. One may read the Dmax as the greatest extent of degradation seen. A lower Dmax goes with shallow degradation. On to `Cc1cc2cc(n1)-c1cnn(C)c1OCCC[C@@H](C)CN1/C(=N/C2=O)Nc2ccc(C(=O)N(C)[C@@H]3CCN(CCc4cc(F)c([C@H]5CCC(=O)NC5=O)c(F)c4)C[C@H]3O)cc21` [Example 243, (R,E)-N-((3R,4R)-1-(4-((R)-2,6-dioxopiperidin-3-yl)-3,5-difluorophenethyl)-3-hydroxypiperidin-4-yl)-N,1^1,2^6,7-tetramethyl-3-oxo-5^2,5^3-dihydro-1^1H,5^1H-11-oxa-4-aza-5(2,1)-benzo[d]imidazola-2(2,4) -pyridina-1(4,5)-pyrazolacycloundecaphane-5^6-carboxamide], for which, in the experiment with Del19/T790M/C797S EGFR, half-maximal degradation (DC50) was put at 2.9 nM and the “Dmax (%)” value came out at 86.39%. Besides, on L858R/T790M/C797S EGFR, the half-maximal degradation concentration (DC50) came out at 0.677 nM and the Dmax stood at 92.1%.

For `Cc1cc2cc(n1)-c1cnn(C)c1OCCC[C@@H](C)CN1/C(=N/C2=O)Nc2ccc(C(=O)N(C)C3CCN(CCc4cccc5c4C(C)(C)C(=O)N5C4CCC(=O)NC4=O)CC3)cc21` (stereo partly drawn) [Example 317, (7R,E)-N-(1-(2-(1-(2,6-dioxopiperidin-3-yl)-3,3-dimethyl-2-oxoindolin-4-yl)ethyl)piperidin-4-yl)-N,1^1,2^6,7-tetramethyl-3-oxo-5^2,5^3-dihydro-1^1H,5^1H-11-oxa-4-aza-5(2,1)-benzo[d]imidazola-2(2,4)-pyridina-1(4,5)-pyrazolacycloundecaphane-5^6-carboxamide], in the experiment with Del19/T790M/C797S EGFR, the DC50 came out at 0.728 nM and the “Dmax (%)” value amounted to 52.86%. Moreover, on L858R/T790M/C797S EGFR, it took 1.14 nM to reach half-maximal degradation (DC50) and the Dmax came to 80.2%.

In the case of `Cc1cc2cc(n1)-c1cnn(C)c1OCCC[C@@H](C)CN1/C(=N/C2=O)Nc2ccc(CN3CCC4(CC3)CN(C(=O)[C@H]3CN(c5cc(F)c([C@H]6CCC(=O)NC6=O)c(F)c5)CC3(C)C)C4)cc21` [Example 26, (R)-3-(4-((R)-3,3-dimethyl-4-(7-(((R,E)-1^1,2^6,7-trimethyl-3-oxo-5^2,5^3-dihydro-1^1H,5^1H-11-oxa-4-aza-5(2,1)-benzo[d]imidazola-2(2,4)-pyridina-(4,5)-pyrazolacycloundecaphane-5^6-yl)methyl)-2,7-diazaspiro[3.5]nonane-2-carbonyl)pyrrolidin-1-yl)-2,6-difluorophenyl)piperidine-2,6-dione], in the experiment with Del19/T790M/C797S EGFR, half-maximal degradation (DC50) was put at 2.4 nM and the “Dmax (%)” value was 81.2%. Moreover, on L858R/T790M/C797S EGFR, it took 2 nM to reach half-maximal degradation (DC50) and the Dmax turned out to be 93.7%.

For the compound `Cc1cc2cc(n1)-c1cnn(C)c1OCCC[C@@H](C)CN1/C(=N/C2=O)Nc2ccc(C(=O)N(C)C3CCN(CC4CCN(c5cc(F)c([C@H]6CCC(=O)NC6=O)c(F)c5)CC4)CC3)cc21` [Example 287, (R,E)-N-(1-((1-(4-((R)-2,6-dioxopiperidin-3-yl)-3,5-difluorophenyl)piperidin-4-yl)methyl)piperidin-4-yl)-N,1^1,2^6,7-tetramethyl-3-oxo-5^2,5^3-dihydro-1^1H,5^1H-11-oxa-4-aza-5(2,1)-benzo[d]imidazola-2(2.4)-pyridina-1(4,5)-pyrazolacycloundecaphane-5^6-carboxamide], in the experiment with Del19/T790M/C797S EGFR, the half-maximal degradation concentration (DC50) stood at 0.918 nM and the “Dmax (%)” value is listed as 88.53%. On L858R/T790M/C797S EGFR, this compound gave a DC50 of 0.581 nM and a Dmax of 93.5%.

As for `Cc1cc2cc(n1)-c1cnn(C)c1OCCC[C@@H](C)CN1/C(=N/C2=O)Nc2ccc(N3CCN(C4CCN(c5ccc(C6CCC(=O)NC6=O)nc5)CC4)CC3)cc21` (stereo partly drawn) [Example 373, 3-(5-(4-(4-((R,E)-1^1,2^6,7-trimethyl-3-oxo-5^2,5^1-dihydro-1^1H,5^1H-11-oxa-4-aza-5(2,1)-benzo[d]imidazola-2(2,4)-pyridina-1(4,5)-pyrazolacycloundecaphane-5^6-yl)piperazin-1-yl)piperidin-1-yl)pyridin-2-yl)piperidine-2,6-dione], in the experiment with Del19/T790M/C797S EGFR, it took 0.656 nM to reach half-maximal degradation (DC50) and the “Dmax (%)” value was 69.22%. Further, on L858R/T790M/C797S EGFR, the DC50 turned out to be 0.47 nM and the Dmax was 84.9%.

On to `Cc1cc2cc(n1)-c1cnn(C)c1OCCC[C@@H](C)CN1/C(=N/C2=O)Nc2ccc(N3CCC(C(=O)N4CC(Nc5cc(F)c([C@H]6CCC(=O)NC6=O)c(F)c5)C4)CC3)cc21` [Example 404, (R)-3-(2,6-difluoro-4-((1-(1-((R,E)-1^1,2^6,7-trimethyl-3-oxo-5^2,5^3-dihydro-1^1H,5^1H-li-oxa-4-aza-5(2,1)-benzo[d]imidazola-2(2,4)-pyridina-1(4,5)-pyrazolacycloundecaphane-5^4-yl)piperidine-4-carbonyl)azetidin-3-yl)amino)phenyl)piperidine-2,6-dione], for which, in the experiment with Del19/T790M/C797S EGFR, the DC50 came to 1.69 nM and the “Dmax (%)” value stood at 83.57%. In addition, at L858R/T790M/C797S EGFR, the 50% degradation concentration (DC50) was found to be 0.94 nM and the Dmax was determined as 88.5%.

Consider `Cc1cc2cc(n1)-c1cnn(C)c1OCCC[C@@H](C)CN1/C(=N/C2=O)Nc2ccc(CN3CCN(CC4CN(c5cc(F)c([C@H]6CCC(=O)NC6=O)c(F)c5)C4)CC3)c(C)c21` [Example 148, (R)-3-(2,6-difluoro-4-(3-((4-(((R,E)-1^1,2^6,5^7,7-tetramethyl-3-oxo-5^2,5^3-dihydro-1^1H,5^1H-11-oxa-4-aza-5(2,1)-benzo[d]imidazola-2(2,4)-pyridina-1(4,5)-pyrazolacycloundecaphane-5^6-yl)methyl)piperazin-1-yl)methyl)azetidin-1-yl)phenyl)piperidine-2,6-dione], for which, in the experiment with Del19/T790M/C797S EGFR, half-maximal degradation (DC50) was put at 3.09 nM and the “Dmax (%)” value is 70.93%. On L858R/T790M/C797S EGFR, this compound gave a DC50 of 1.89 nM and a Dmax of 78.7%.

On to `Cc1cc2cc(n1)-c1cnn(C)c1OCCCC1(CC1)CN1/C(=N/C2=O)Nc2ccc(C(=O)N(C)C3CCN(CCc4cc(F)c([C@H]5CCC(=O)NC5=O)c(F)c4)CC3)cc21` [Example 236, (R,E)-N-(1-(4-(2,6-dioxopiperidin-3-yl)-3,5-difluorophenethyl)piperidin-4-yl)-N,1′,6′-trimethyl-3′-oxospiro[cyclopropane-1,7′-11-oxa-4-aza-5(2,1)-benzo[d]imidazola-2(2,4)-pyridina-1(4,5)-pyrazolacycloundecaphane]-6′-carboxamide], for which, in the experiment with Del19/T790M/C797S EGFR, the DC50 is 0.42 nM and the “Dmax (%)” value was determined as 87.56%. At L858R/T790M/C797S EGFR, this compound registered a half-maximal degradation concentration (DC50) of 0.546 nM and a Dmax of 88.4%.

On to `Cc1cc2cc(n1)-c1cnn(C)c1OCCC[C@@H](C)CN1/C(=N/C2=O)Nc2ccc(CN(C)[C@@H]3CCCN(C(=O)[C@@H]4CCN(c5cc(F)c([C@H]6CCC(=O)NC6=O)c(F)c5)C4)C3)cc21` [Example 318, (R)-3-(2,6-difluoro-4-((R)-3-((R)-3-(methyl(((R,E)-1^1,2^6,7-trimethyl-3-oxo-5^2,53-dihydro-1^1H,5^1H-11-oxa-4-aza-5(2,1)-benzo[d]imidazola-2(2,4)-pyridina-1(4,5)-pyrazolacycloundecaphane-5^6-yl)methyl)amino)piperidine-1-carbonyl)pyrrolidin-1-yl)phenyl)piperidine-2,6-dione], for which, in the experiment with Del19/T790M/C797S EGFR, the DC50 was determined as 0.995 nM and the “Dmax (%)” value stood at 67.67%. On L858R/T790M/C797S EGFR, half-maximal degradation (DC50) was put at 1.33 nM and the Dmax came to 76.4%.

Consider `CCN(C(=O)c1ccc2c(c1)N1C[C@H](C)CCCOc3c(cnn3C)-c3cc(cc(C)n3)C(=O)/N=C/1N2)C1CCN(C2CCN(c3cc(F)c([C@H]4CCC(=O)NC4=O)c(F)c3)CC2)CC1` [Example 288, (R,E)-N-(1′-(4-((R)-2,6-dioxopiperidin-3-yl)-3,5-difluorophenyl)-[1,4′-bipiperidin]-4-yl)-N-ethyl-1^1, 2^6,7-trimethyl-3-oxo-5^2,5^3-dihydro-1^1H,5^1H-11-oxa-4-aza-5(2,1)-benzo[d]imidazola-2(2,4)-pyridina-1(4,5)-pyrazolacycloundecaphane-5^6-carboxamide], for which, in the experiment on Del19/T790M/C797S EGFR, half-maximal degradation (DC50) was put at 0.488 nM and the “Dmax (%)” value is given as 79.62%. On L858R/T790M/C797S EGFR, this compound returned a half-maximal degradation concentration (DC50) of 0.662 nM and a Dmax of 92.8%.

As to `Cc1cc2cc(n1)-c1cnn(C)c1OCCC[C@@H](C)CN1/C(=N/C2=O)Nc2ccc(N3CC[C@@H](N4CCN(c5cc(F)c([C@H]6CCC(=O)NC6=O)c(F)c5)CC4)CC3=O)cc21` [Example 448, (R)-3-(2,6-difluoro-4-(4-((R)-2-oxo-1-((R,E)-1^1,2^6,7-trimethyl-3-oxo-5^2,5^3-dihydro-1^1H,5^1H-11-oxa-4-aza-5(2,1)-benzo[d]imidazola-2(2,4)-pyridina-1(4,5)-pyrazolacycloundecaphane-5^6-yl)piperidin-4-yl)piperazin-1-yl)phenyl)piperidine-2,6-dione], in the experiment on Del19/T790M/C797S EGFR, half-maximal degradation (DC50) was put at 0.584 nM and the “Dmax (%)” value came out at 88.36%. On L858R/T790M/C797S EGFR, half-maximal degradation (DC50) was put at 0.237 nM and the greatest degradation seen (Dmax) was found to be 92.3%.

Turning to `Cc1cc2cc(n1)-c1cnn(C)c1OCCC[C@@H](C)CN1/C(=N/C2=O)Nc2ccc(N3CCN(C4CCN(c5ccc(C6CCC(=O)NC6=O)nc5)CC4)CC3=O)cc21` (stereo partly drawn) [Example 395, 3-(5-(4-(3-oxo-4-((R,E)-1^1,2^6,7-trimethyl-3-oxo-5^2,5^3-dihydro-1^1H,5^1H-11-oxa-4-aza-5(2,1)-benzo[d]imidazola-2(2,4)-pyridina-1(4,5)-pyrazolacycloundecaphane-5^6-yl)piperazin-1-yl)piperidin-yl-)pyridin-2-yl)piperidine-2,6-dione], in the experiment on Del19/T790M/C797S EGFR, it took 0.526 nM to reach half-maximal degradation (DC50) and the “Dmax (%)” value worked out at 77.96%. At L858R/T790M/C797S EGFR, this compound registered a DC50 of 1.02 nM and a Dmax of 84.5%.
